Experimental data reported in US8158605B2, “Azacytidine analogues and uses thereof” (Mount Sinai School of Medicine, priority 2007, dated 2012).

Assays:
[1] = Metabolic stability in pooled human plasma at 37° C.; format: in vitro ADME
Procedure: The mixture was incubated in a shaking water batch at 37° C. Aliquots (100 μl) of the incubation solutions were withdrawn in triplicate (n=3) at the designed incubation period (0, 15, 30, 60 and 120 minutes), and plasma protein was immediately precipitated using acetonitrile containing 0.1% formic acid (300 μl). […] After centrifugation, the supernatant was directly introduced for LC-MS-MS analysis.

[2] = tested on: Hela cervix carcinoma cells; experiment: MTT cytotoxicity with or without nucleoside transport inhibitor dipyridamole; format: cell-based
Procedure: Dipyridamole was used as an inhibitor of the equilibrative nucleoside transporters hENT1 and hENT2. […] The cells were pre-incubated for 24 hours. Dipyridamole (10 μM) was added to the cells 30 minutes prior to the addition of the test compounds. […] Six wells were used per test concentration. The cells were incubated with test compound for 72 hours.

[3] = tested on: NFκB; experiment: LPS stimulated NFκB luciferase reporter activity in U937 cells; format: cell-based, human; details: 10 nM, LPS 1 μg/ml, 1, 3 or 6 hours, compared to DMSO treated control
Procedure: NFκB-luciferase reporter genes were used to determine the influence of Aza-C and 5-Aza-C-5′-elaidic acid on NFκB-induced luciferase activity in a human monocytic cell line U937, stably transfected with a luciferase reporter containing three NFκB-binding sites. The induction of NFκB was performed using lipopolysaccharide (LPS) at 1 μg/ml for 30 minutes prior to the addition of Aza-C or 5-Aza-C-5′-elaidic acid in the concentrations 10 nM to the medium. The cells were cultured in RPMI-1640 medium including 10% fetal bovine serum. Before stimulation with LPS the cells were transferred to medium containing only 2% fetal bovine serum. Luciferase activity was measured by imaging in an IVIS imaging System 100 (Xenogen Corp., USA) after 1, 3 or 6 hours. The LPS stimulation increased with time over the 6 hours followed in the DMSO treated control cells. […] Generally, a positive stimulation of NFκB as observed for azacytidine is not positive, and it is positive that the LPS stimulation is not further increased by 5′Aza-C-5′-elaidic acid.

[4] = tested on: DU145; experiment: WST-1 cytotoxicity assay; format: cell-based; details: Homo sapiens, DU-145
Procedure: (§1) Human promyelocytic leukemia cell lines HL60, human histiocytic lymphoma U937, human chronic myelogenous leukemia K562, human acute T cell Jurkat, breast adenocarcinoma MCF-7, urinary bladder carcinoma 5637, prostate carcinoma DU-145 were purchased from American Type Culture Collection. All cell lines except Jurkat were maintained in RPMI 1640 medium (Gibco, Glasgow, UK) supplemented with 10% heat-inactivated fetal calf serum (FCS), 100 U/ml of penicillin, and […] streptomycin, in an atmosphere of 5% CO2 at 37° C. Jurkat cells were cultured in RPMI 1640 medium supplemented with 1.5 g/L sodium bicarbonate, 4.5 g/L glucose, 10 mM sodium pyruvate, and 10% FCS, 100 U/ml of penicillin, and […] streptomycin.
(§2) MCF-7, DU-145, and 5637 cells (1×10^4/ml) were plated and allowed to adhere and spread for 24 hours. […] Cultures were incubated with WST-1 reagent for 1 hour. The production of formazan was measured by a microplate reader (Bio-Tek Instruments, Elx 800) at 450 nm with a reference wavelength of 650 nm. Growth inhibition was determined as compared to untreated cells (%). IC50 values were calculated using CalcuSyn software (Biosoft).

[5] = tested on: 5637; experiment: WST-1 cytotoxicity assay; format: cell-based
Procedure: as §1, §2

[6] = tested on: HL60; experiment: WST-1 cytotoxicity assay; format: cell-based; details: Homo sapiens, HL-60
Procedure: as §1, §2

[7] = tested on: K562; experiment: WST-1 cytotoxicity assay; format: cell-based; details: Homo sapiens
Procedure: as §1, §2

[8] = tested on: MCF-7; experiment: WST-1 cytotoxicity assay; format: cell-based; details: Homo sapiens, MCF7
Procedure: as §1, §2

[9] = tested on: Jurkat; experiment: WST-1 cytotoxicity assay; format: cell-based; details: Homo sapiens
Procedure: as §1, §2

[10] = tested on: U937; experiment: WST-1 cytotoxicity assay; format: cell-based; details: Homo sapiens, U-937
Procedure: as §1, §2

[11] = tested on: estrogen receptor beta; experiment: Gene expression of estrogen receptor β by real-time PCR in MCF-7 cells; format: cell-based; details: MCF-7, 1 μM, 5 days
Procedure: The gene expression (determined on RNA level) of estrogen receptor beta was determined by quantitative real-time PCR. (TaqMan). MCF-7 mammary carcinoma cells were grown in estrogen deficient media (Phenol-Red-free RPMI with 2% glutamine and 10% charcoal-dextran treated fetal calf serum). […] One untreated control was included as control. The cells were harvested after 5 days of exposure to the compounds; they were harvested by trypsination, washed and shock frozen in liquid nitrogen.
The total RNA was extracted from approximately 10^6 shock frozen MCF-7 cells. The RNA concentration and purity was measured, and RNA was transcribed into cDNA using TaqMan Reverse Trancription reagents (N808-0234). Real-time quantification was performed using standard protocols and premixed PCR reagents. The primer-probe mixes were ordered from Applied Biosystems, ER β (ID Hs00230957_ml) and housekeeping gene hydrocylmethyl-bilane synthase HMBS (ID Hs00609297_ml). Gene expression was calculated using the comparative delta-delta Ct method.

CCCCCCCC/C=C/CCCCCCCC(=O)OC[C@H]1O[C@@H](n2cnc(N)nc2=O)[C@H](O)[C@@H]1O [CP, 5-azacytidine 5′-elaidate]
half-life at 0.1 μM ([1]; 0.1 μM): 2.68 h | % Remaining of initial (mean ± SD, n = 3) ([1]; 0.1 μM, 0 min): 100% | % Remaining of initial (mean ± SD, n = 3) ([1]; 0.1 μM, 15 min): 95.8 ± 3.0% | % Remaining of initial (mean ± SD, n = 3) ([1]; 0.1 μM, 30 min): 95.0 ± 2.0% | % Remaining of initial (mean ± SD, n = 3) ([1]; 0.1 μM, 60 min): 92.1 ± 3.4% | % Remaining of initial (mean ± SD, n = 3) ([1]; 0.1 μM, 120 min): 59.0 ± 1.6% | half-life at 1 μM ([1]; 1 μM): 2.17 h | % Remaining of initial (mean ± SD, n = 3) ([1]; 1 μM, 0 min): 100% | % Remaining of initial (mean ± SD, n = 3) ([1]; 1 μM, 15 min): 93.3 ± 1.1% | % Remaining of initial (mean ± SD, n = 3) ([1]; 1 μM, 30 min): 88.9 ± 1.1% | % Remaining of initial (mean ± SD, n = 3) ([1]; 1 μM, 60 min): 79.8 ± 2.6% | % Remaining of initial (mean ± SD, n = 3) ([1]; 1 μM, 120 min): 52.5 ± 3.1% | half-life at 3 μM ([1]; 3 μM): 2.35 h | % Remaining of initial (mean ± SD, n = 3) ([1]; 3 μM, 0 min): 100% | % Remaining of initial (mean ± SD, n = 3) ([1]; 3 μM, 15 min): 99.0 ± 3.5% | % Remaining of initial (mean ± SD, n = 3) ([1]; 3 μM, 30 min): 96.0 ± 3.0% | % Remaining of initial (mean ± SD, n = 3) ([1]; 3 μM, 60 min): 85.4 ± 3.4% | % Remaining of initial (mean ± SD, n = 3) ([1]; 3 μM, 120 min): 56.6 ± 1.6% | half-life at 10 μM ([1]; 10 μM): 1.43 h | % Remaining of initial (mean ± SD, n = 3) ([1]; 10 μM, 0 min): 100% | % Remaining of initial (mean ± SD, n = 3) ([1]; 10 μM, 15 min): 96.0 ± 2.0% | % Remaining of initial (mean ± SD, n = 3) ([1]; 10 μM, 30 min): 93.1 ± 0.0% | % Remaining of initial (mean ± SD, n = 3) ([1]; 10 μM, 60 min): 77.1 ± 3.1% | % Remaining of initial (mean ± SD, n = 3) ([1]; 10 μM, 120 min): 39.1 ± 1.7% | half-life at 30 μM ([1]; 30 μM): 1.82 h | % Remaining of initial (mean ± SD, n = 3) ([1]; 30 μM, 0 min): 100% | % Remaining of initial (mean ± SD, n = 3) ([1]; 30 μM, 15 min): 97.7 ± 3.5% | % Remaining of initial (mean ± SD, n = 3) ([1]; 30 μM, 30 min): 90.4 ± 2.6% | % Remaining of initial (mean ± SD, n = 3) ([1]; 30 μM, 60 min): 78.5 ± 1.7% | % Remaining of initial (mean ± SD, n = 3) ([1]; 30 μM, 120 min): 47.4 ± 1.1% | cytotoxic activity increased when hENT1 and hENT2 blocked by dipyridamole ([2]; Hela, with vs without dipyridamole): 50 fold | IC50 ([2]; Homo sapiens, HeLa, 72 h, Hela with dipyridamole (10 μM), MTT): 0.23 µM | LPS stimulated NFκB luciferase activity [3]: did not differ from the DMSO control | IC50 ([4]; DU145, 24 hour treatment): 6.79 µM | IC50 ([4]; DU145, 48 hour treatment): 6.31 µM | IC50 ([4]; DU145, 72 hour treatment): 5.88 µM | IC50 ([5]; 5637, 24 hour treatment): 9.39 µM | IC50 ([5]; 5637, 48 hour treatment): 5.95 µM | IC50 ([5]; 5637, 72 hour treatment): 3.52 µM | IC50 ([6]; HL60, 24 hour treatment): 3.19 µM | IC50 ([6]; HL60, 48 hour treatment): 3.6 µM | IC50 ([6]; HL60, 72 hour treatment): 2.68 µM | IC50 ([7]; K562, 24 hour treatment): 1.26 µM | IC50 ([7]; K562, 48 hour treatment): 0.92 µM | IC50 ([8]; MCF-7, 24 hour treatment): 19.1 µM | IC50 ([8]; MCF-7, 48 hour treatment): 9.32 µM | IC50 ([8]; MCF-7, 72 hour treatment): 9.99 µM | IC50 ([9]; 24 hour treatment): 1.19 µM | IC50 ([9]; 48 hour treatment): 0.88 µM | IC50 ([9]; 72 hour treatment): 0.84 µM | IC50 ([10]; U937, 24 hour treatment): 0.44 µM | IC50 ([10]; U937, 48 hour treatment): 0.6 µM | IC50 ([10]; U937, 72 hour treatment): 0.87 µM | Ct ER β [11]: 32.97 | delta [11]: 7.06 | Delta delta ([11]; versus untreated): −2.40
